Assay results from the supplement of paper PMC8882468.

Columns and labels:
Experiment in all cases: CTG-3D luminescence at 96 h relative to day-0 seeding control (ratio to day 0); higher = more growth / less cytotoxicity; PDxO 3D drug screen, 96 h, CTG-3D normalised to day-0 seeding control.
HCI-005.E2 = system: HCI-005.E2 (organoid from a breast cancer xenograft with a HER2-positive history)
HCI-008 = system: HCI-008 (organoid from a HER2-enriched breast cancer xenograft)
HCI-010 = system: HCI-010 (organoid from a breast cancer xenograft)
HCI-011.E2 = system: HCI-011.E2 (organoid from an ER-positive breast cancer xenograft)
HCI-012 = system: HCI-012 (organoid from a breast cancer xenograft)
HCI-015 = system: HCI-015 (organoid from a triple-negative breast cancer xenograft)
HCI-019 = system: HCI-019 (organoid from a triple-negative breast cancer xenograft)

O=C(O)C1(C(=O)O)CCC1.[NH2-].[NH2-].[Pt+2] [carboplatin]
CTG-3D luminescence at 96 h
Details	12.5 pM	0.00025 µM	0.005 µM	0.1 µM	1 µM	10 µM	100 µM	625 fM
HCI-005.E2	1.69	2.11	1.73	1.87	1.51	1.24	0.225	1.47
HCI-011.E2	1.65	1.72	1.54	2.26	1.71	2.08	1.71	1.69

CTG-3D luminescence at 96 h
Details	12.5 pM	0.00025 µM	0.005 µM	0.1 µM	1 µM	10 µM	100 µM	625 fM
HCI-008, days in culture: 228	1.58	2.29	1.79	2.05	1.57	1.31	0.0629	1.63
HCI-008, days in culture: 244	1.2	1.8	1.7	2.09	1.78	1.89	0.158	1.98
HCI-010, days in culture: 52	1.92	2.23	2.25	2.47	2.55	0.598	0.0393	1.82
HCI-010, days in culture: 65	1.63	1.56	1.74	1.77	1.63	0.511	0.0408	1.74
HCI-010, days in culture: 103	3.69	3.41	3.55	3.27	3.23	0.639	0.13	3.07
HCI-011.E2, days in culture: 74	2.31	2.54	2.04	1.86	2.2	2.77	2.69	1.99
HCI-012, days in culture: 143	2.05	1.91	1.99	2.46	2.43	1.87	0.161	1.81
HCI-012, days in culture: 162	2.3	1.93	2.03	2.94	2.7	2.14	0.261	2.61
HCI-012, days in culture: 201	2.62	1.81	1.46	1.53	2.08	1.48	0.595	1.38
HCI-015, days in culture: 172	2.56	2.15	2.48	1.49	2.05	0.715	0.354	2.54
HCI-015, days in culture: 191	2.21	1.24	1.47	1.04	1.4	0.766	0.228	1.15
HCI-015, days in culture: 218	1.26	1.7	1.7	1.77	1.54	0.685	0.229	1.75
HCI-019, days in culture: 110	1.39	1.76	1.53	2.63	1.29	1.16	0.26	1.97
HCI-019, days in culture: 131	2.21	3.56	2.77	2.39	2.12	1.23	0.234	3.26
HCI-019, days in culture: 152	2.94	2.48	2.23	1.4	1.99	1.4	0.291	1.64

C[C@H](NC(=O)CCC(F)(F)F)C(=O)N[C@@H]1C(=O)N(CCO)c2ncccc2-c2ccccc21 [crenigacestat]
CTG-3D luminescence at 96 h
Details	12.5 pM	0.00025 µM	0.005 µM	0.1 µM	1 µM	10 µM	100 µM	625 fM
HCI-005.E2	1.59	1.76	1.84	1.57	1.33	1.42	1.19	1.47
HCI-011.E2	1.52	2.05	1.54	1.98	1.59	1.95	1.98	1.91

CTG-3D luminescence at 96 h
Details	12.5 pM	0.00025 µM	0.005 µM	0.1 µM	1 µM	10 µM	100 µM	625 fM
HCI-008, days in culture: 228	1.8	1.66	1.56	1.47	1.73	1.7	1.65	1.9
HCI-008, days in culture: 244	1.23	1.65	1.55	1.79	1.38	1.57	1.38	1.79
HCI-010, days in culture: 52	2.36	2.09	2.19	2.54	2.37	2.23	2.04	2
HCI-010, days in culture: 65	1.61	1.63	1.79	1.64	1.79	1.6	1.45	1.67
HCI-010, days in culture: 103	3.59	3.73	3.34	3.15	3.09	2.87	2.58	2.85
HCI-011.E2, days in culture: 74	2.42	2.44	1.96	2.06	2.51	2.95	2.45	2.02
HCI-012, days in culture: 143	1.9	1.85	1.63	2.49	2.07	2.78	2.65	1.78
HCI-012, days in culture: 162	2.11	2.3	1.74	2.93	1.87	2.96	2.74	2.57
HCI-012, days in culture: 201	2.55	1.94	1.82	1.75	2.3	1.67	2.55	1.72
HCI-015, days in culture: 172	2.18	1.26	1.37	0.655	0.872	1.02	1.03	2.13
HCI-015, days in culture: 191	1.82	1.27	0.914	0.48	0.414	0.657	0.695	1.32
HCI-015, days in culture: 218	1.66	1.29	0.952	0.72	0.7	0.533	0.827	1.61
HCI-019, days in culture: 110	1.5	1.45	1.75	2.18	1.25	2.5	2.44	2.28
HCI-019, days in culture: 131	2.19	3.56	1.97	2.86	2.87	2.81	3.41	3.74
HCI-019, days in culture: 152	3.73	3.39	2.6	2.64	1.96	2.12	2	2.48
